Test results reported in article PMC10672039, “Novel Ca-Chelating Peptides from Protein Hydrolysate of Antarctic Krill (Euphausia superba): Preparation, Characterization, and Calcium Absorption Efficiency in Caco-2 Cell Monolayer Model” (Marine Drugs, 2023).
Peptide text beside a SMILES is read from it.

Experiments:
[1] = test system: Caco-2 cells; test: Cytotoxicity, MTT assay; format: cell-based, Human; settings: 24 h treatment
Experimental: (§1) Caco-2 cells were obtained from the Shanghai Institute of Cell Biology (Shanghai, China) and cultured in EMEM with 10% fetal bovine serum, 1% antibiotic, and 1% nonessential amino acids in a humidified incubator at 37 °C with 5% CO2. The cell culture medium was replaced every two days with a new medium of equal volume. The Caco-2 cells were dispersed using trypsin-EDTA when they covered approximately 90% of the flask and were seeded on 6-well transwell culture plates with polyester membranes. The medium was replaced every other day with a new medium of equal volume. After being cultured for 21 days, the transepithelial electrical resistance (TEER) was determined to confirm the integrity of the Caco-2 cell monolayers. The Caco-2 cell monolayers were used for Ca transport experiments when the TEER exceeded 300 Ω·cm^2 [60, 66].
Cell cytotoxicity was determined using the MTT assay. […] Then, MTT solution (100 μL) was added per well and incubated for an additional 4 h. The MTT solution per well was replaced by an equal volume of DMSO solution to solubilize. Finally, the absorbance of the sample solution at 570 nm was measured.

[2] = test system: Caco-2 cell monolayer; test: Ca transport across the Caco-2 cell monolayer; format: in vitro ADME, Human; settings: Caco-2 monolayer, mean ± SD, n = 3
Experimental: as §1
The Ca transport in the Caco-2 cell monolayer model was analyzed using previous methods. After 21 days of incubation, the culture medium of Caco-2 cells was discarded from each well, and monolayers were immediately washed with HBSS buffer (without Ca and magnesium) two times. The Caco-2 cell monolayers were transferred to a new 6-well culture plate containing 2 mL of HBSS buffer, and 2 mL of HBSS buffer was also added to the apical side. After incubating for 30 min, the HBSS on the apical side was replaced with 2 mL of HBSS containing VERG-Ca chelate (200 μM) or Ca (150 μg/mL), and the HBSS on the basolateral side was replaced with an equal volume of fresh HBSS buffer. After incubation for 2 h, 1 mL of HBSS in the basolateral side was removed to determine Ca content at the designed time (30, 60,120, and 180 min). At the same time, fresh HBSS buffer (1 mL) was added to the basolateral side to maintain a constant volume. The content of Ca was determined by atomic absorption spectrometry using HNO3 and HClO4 as the oxidizers.
In the experiments on the effects of vitamin D3 and phytate on Ca absorption, dietary factors (vitamin D3 and phytate) were first premixed with VERG-Ca chelate or CaCl2, respectively, at a mass ratio of 1:1. […]

| absorption amount of Ca with phytate ([2]; 180 min (stated for CaCl2; not restated for the chelate), premixed with phytate at mass ratio 1:1) [μg/mg protein] | quantity of Ca of transport / absorption amount of Ca ([2]; 180 min, apical to basolateral, HBSS, VERG-Ca chelate 200 μM or Ca 150 μg/mL, atomic absorption spectrometry) [μg/mg protein] | absorption amount of Ca with vitamin D3 ([2]; 180 min, premixed with vitamin D3 at mass ratio 1:1) [μg/mg protein] | SMILES | effect on viability of Caco-2 cells ([1]; 250 μM, vs control group (p < 0.05)) | effect on viability of Caco-2 cells ([1]; 50–200 μM, vs control group) |
| --- | --- | --- | --- | --- | --- |
|  |  |  | CC(C)[C@H](N)C(=O)N[C@@H](CCC(=O)O)C(=O)N[C@@H](CCCNC(=N)N)C(=O)NCC(=O)O [ACP4, Val-Glu-Arg-Gly] (H-VERG-OH) | significantly decrease the viability | no significant effect on cell viability |
| 2.02 ± 0.24 | 2.96 ± 0.28 | 5.14 ± 0.23 | [Ca+2].[Cl-].[Cl-] [CaCl2] |  |  |
